Results as given in patent US8975232B2, “Macrocyclic kinase inhibitors and uses thereof” (President and Fellows of Harvard College, priority 2010, dated 2015).
pIC50, pKd: −log10 of the molar value. Read-outs that look alike come from different tables or passages of the source.

Experiments:
Lck = target: T1, Lck (Mus musculus, UniProt P06240); experiment: Continuous spectrophotometric kinase activity assay; type: biochemical, murine
T1 construct: murine Lck (residues 227-509); made in house

Akt3 = Akt3 (Homo sapiens, UniProt Q9Y243); experiment: Z'-LYTE kinase assay (Invitrogen SelectScreen); type: biochemical; conditions: AKT3 (PKB gamma); 5 μM
Chain of Akt3 (Q9Y243 whole entry): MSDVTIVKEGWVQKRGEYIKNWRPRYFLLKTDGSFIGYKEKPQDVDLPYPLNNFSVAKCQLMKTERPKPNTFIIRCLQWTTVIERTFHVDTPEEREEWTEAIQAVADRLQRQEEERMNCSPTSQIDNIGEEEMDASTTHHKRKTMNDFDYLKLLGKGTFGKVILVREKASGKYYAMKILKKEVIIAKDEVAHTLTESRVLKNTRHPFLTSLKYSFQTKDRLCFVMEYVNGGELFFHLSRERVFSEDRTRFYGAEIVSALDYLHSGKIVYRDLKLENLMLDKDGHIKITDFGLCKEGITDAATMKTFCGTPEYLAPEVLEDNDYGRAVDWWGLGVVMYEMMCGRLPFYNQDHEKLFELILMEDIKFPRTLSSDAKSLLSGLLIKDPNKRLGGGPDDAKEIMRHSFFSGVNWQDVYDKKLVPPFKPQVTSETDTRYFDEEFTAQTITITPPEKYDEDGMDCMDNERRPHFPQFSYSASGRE
Excerpt: (§1) Macrocycles A10-B1-C11-D5 and A10-B8-C11-D5 were enriched 2- to 6-fold upon selection for binding Akt3, MAPKAPK2, Pim1, and VEGFR2 (FIG. 6). These two macrocycles are structurally similar, sharing nitrophenylalanine (A10) and cyclohexylstatine (C11) building blocks as well as the same lysine scaffold (D5), and differ only at the B building block with either furylalanine (B1) or cyclohexylalanine (B8) (FIG. 6). For assay purposes, the macrocycles were synthesized with C-terminal PEG-diamine linkers to aid solubility, and then tested for the ability to inhibit Akt3, MAPKAPK2, Pim1 and VEGFR2.
(§2) Src IC50 determinations and single-point inhibition measurements were performed using Invitrogen's Z′-LYTE Tyr 02 assay kit according to the manufacturer's protocols. All kinase assays were performed at ATP concentrations near KM,ATP values, except where noted otherwise. Active human Src kinase was obtained from Millipore. For kinome profiling and IC50 determinations against non-Src kinases, compounds were submitted to Invitrogen's SelectScreen Kinase Profiling Service.

MAPKAPK2 (MK2) = MAPKAPK2 (MK2) (Homo sapiens, UniProt P49137); experiment: Z'-LYTE kinase assay (Invitrogen SelectScreen); type: biochemical; conditions: MAPKAPK2; 5 μM
Chain of MAPKAPK2 (MK2) (P49137 whole entry): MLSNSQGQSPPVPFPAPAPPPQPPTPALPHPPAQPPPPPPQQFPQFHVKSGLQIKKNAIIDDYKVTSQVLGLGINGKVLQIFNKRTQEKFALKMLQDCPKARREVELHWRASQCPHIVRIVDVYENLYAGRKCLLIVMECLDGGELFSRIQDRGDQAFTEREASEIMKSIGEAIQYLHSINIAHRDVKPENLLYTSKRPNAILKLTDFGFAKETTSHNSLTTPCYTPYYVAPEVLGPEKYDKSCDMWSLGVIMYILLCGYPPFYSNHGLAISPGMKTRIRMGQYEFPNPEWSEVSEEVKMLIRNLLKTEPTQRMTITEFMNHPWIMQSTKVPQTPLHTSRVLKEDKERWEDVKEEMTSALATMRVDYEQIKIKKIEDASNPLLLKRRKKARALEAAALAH
Excerpt: as §1, §2

VEGFR2 (KDR) = VEGFR2 (KDR) (Homo sapiens, UniProt P35968); experiment: Z'-LYTE kinase assay (Invitrogen SelectScreen); type: biochemical; conditions: KDR (VEGFR2); 5 μM
Chain of VEGFR2 (KDR) (P35968 20-1356): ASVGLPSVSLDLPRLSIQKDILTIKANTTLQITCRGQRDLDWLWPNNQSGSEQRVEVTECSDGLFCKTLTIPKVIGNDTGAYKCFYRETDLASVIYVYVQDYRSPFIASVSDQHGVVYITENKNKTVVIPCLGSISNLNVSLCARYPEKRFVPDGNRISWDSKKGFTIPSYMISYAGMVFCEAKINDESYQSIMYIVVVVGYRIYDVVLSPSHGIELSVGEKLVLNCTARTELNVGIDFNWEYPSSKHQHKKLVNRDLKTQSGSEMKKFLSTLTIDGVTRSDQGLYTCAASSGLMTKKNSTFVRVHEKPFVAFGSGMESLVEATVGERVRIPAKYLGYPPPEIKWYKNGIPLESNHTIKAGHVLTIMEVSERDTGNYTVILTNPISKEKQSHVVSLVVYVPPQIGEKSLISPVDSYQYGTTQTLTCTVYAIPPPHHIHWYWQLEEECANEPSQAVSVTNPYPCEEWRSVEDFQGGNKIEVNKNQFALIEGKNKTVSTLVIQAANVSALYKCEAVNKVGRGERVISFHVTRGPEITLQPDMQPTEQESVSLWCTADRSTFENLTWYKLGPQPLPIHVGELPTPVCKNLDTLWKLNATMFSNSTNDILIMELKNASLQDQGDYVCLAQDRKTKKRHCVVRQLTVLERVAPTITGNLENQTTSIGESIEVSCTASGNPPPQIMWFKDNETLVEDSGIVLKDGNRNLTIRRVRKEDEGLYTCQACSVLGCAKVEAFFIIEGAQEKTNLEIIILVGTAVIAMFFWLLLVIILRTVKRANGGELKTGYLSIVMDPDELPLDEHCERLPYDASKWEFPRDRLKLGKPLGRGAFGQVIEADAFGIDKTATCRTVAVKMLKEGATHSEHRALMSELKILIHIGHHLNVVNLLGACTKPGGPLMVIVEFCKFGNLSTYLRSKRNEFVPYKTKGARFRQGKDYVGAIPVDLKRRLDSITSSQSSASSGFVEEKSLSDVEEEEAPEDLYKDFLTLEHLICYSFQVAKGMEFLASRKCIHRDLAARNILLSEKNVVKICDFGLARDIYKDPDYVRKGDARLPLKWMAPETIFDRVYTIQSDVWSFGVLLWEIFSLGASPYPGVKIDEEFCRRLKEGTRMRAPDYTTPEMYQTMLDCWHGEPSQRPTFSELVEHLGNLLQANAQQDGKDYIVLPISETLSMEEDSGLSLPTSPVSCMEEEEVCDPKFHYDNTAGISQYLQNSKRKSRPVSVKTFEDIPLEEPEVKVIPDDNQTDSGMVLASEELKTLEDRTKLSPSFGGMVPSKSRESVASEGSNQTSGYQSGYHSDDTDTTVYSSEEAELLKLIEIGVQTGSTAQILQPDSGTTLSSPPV
Excerpt: as §1, §2

Pim1 = Pim1 (Homo sapiens, UniProt P11309); experiment: Z'-LYTE kinase assay (Invitrogen SelectScreen); type: biochemical; conditions: PIM1; 5 μM
Chain of Pim1 (P11309 whole entry): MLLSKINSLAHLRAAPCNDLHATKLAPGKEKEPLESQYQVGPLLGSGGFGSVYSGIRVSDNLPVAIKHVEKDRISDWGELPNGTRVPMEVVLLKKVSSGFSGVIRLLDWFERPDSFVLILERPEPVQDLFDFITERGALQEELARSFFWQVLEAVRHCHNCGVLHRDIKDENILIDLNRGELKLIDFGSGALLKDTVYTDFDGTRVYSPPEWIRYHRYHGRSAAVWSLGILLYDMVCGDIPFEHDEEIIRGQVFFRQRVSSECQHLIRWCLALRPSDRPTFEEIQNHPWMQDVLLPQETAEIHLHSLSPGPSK
Excerpt: as §1, §2

HCK = HCK (Homo sapiens, UniProt P08631); experiment: Continuous spectrophotometric kinase activity assay; type: biochemical; parameters: Kinase domain constructs of human c-Abl (residues 229-512), chicken c-Src (residues 251-533 and residues 83-533), murine Lck (residues 227-509), and human Hck (residues 166-445); made in house
Chain of HCK (P08631 262-515 limits assumed): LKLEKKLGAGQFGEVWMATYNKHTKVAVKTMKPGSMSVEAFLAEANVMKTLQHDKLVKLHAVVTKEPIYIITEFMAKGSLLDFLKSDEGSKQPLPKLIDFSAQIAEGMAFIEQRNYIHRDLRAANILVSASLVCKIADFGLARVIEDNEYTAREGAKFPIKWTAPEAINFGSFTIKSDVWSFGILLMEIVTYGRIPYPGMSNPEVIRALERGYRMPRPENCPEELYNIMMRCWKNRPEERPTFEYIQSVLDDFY

Src kinase domain = target: T2, Src kinase domain (Gallus gallus, UniProt P00523); experiment: Fluorescence anisotropy binding assay; parameters: species or system chicken; conditions: fluorescein-labeled macrocycle, read-out: dissociation constant (KD)
T2 construct: chicken c-Src (residues 251-533 and residues 83-533); made in house
Experimental: The change in fluorescence anisotropy of fluorescein-labeled MC1, MC4 and MC9 at 518 nm upon excitation at 492 nm was monitored with a HORIBA Jobin Yvon FluoroMax-4 (Edison, N.J.) spectrofluorimeter. Kinase was titrated to 0.5 μM of the fluorescently labeled macrocycle in 100 mM Tris pH 8.0, 10 mM MgCl2 at 25° C. After equilibration, the increase in the fluorescence anisotropy of the fluorescently labeled ligand was recorded and fitted against a quadratic binding equation in Kaleidagraph (Synergy Software, Reading Pa.) to yield the dissociation constant KD.
To clarify the inhibitory mechanism of the compounds further, the binding affinity of fluorescently labeled MC1, MC4, and MC9 to Src kinase domain was determined in a fluorescence anisotropy assay (FIG. 21).

Abl = target: T3, Abl (Homo sapiens, UniProt P00519); experiment: Continuous spectrophotometric kinase activity assay; type: biochemical
T3 construct: human c-Abl (residues 229-512); made in house
T3 sequence (P00519 229-512): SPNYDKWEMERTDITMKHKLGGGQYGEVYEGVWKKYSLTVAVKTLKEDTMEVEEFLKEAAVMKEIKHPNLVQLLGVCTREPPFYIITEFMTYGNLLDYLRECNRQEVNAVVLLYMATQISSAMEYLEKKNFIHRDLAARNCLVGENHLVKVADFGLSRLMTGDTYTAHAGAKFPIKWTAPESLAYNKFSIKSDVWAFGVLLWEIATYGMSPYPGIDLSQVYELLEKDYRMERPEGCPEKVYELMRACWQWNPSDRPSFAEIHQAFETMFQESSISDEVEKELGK

[1] = target: T4, Src kinase domain (chicken c-Src residues 251-533) (Gallus gallus, UniProt P00523); experiment: as above; type: biochemical; conditions: Src kinase domain
T4 construct: chicken c-Src (residues 251-533 and residues 83-533); made in house

Src kinase = Src kinase (Homo sapiens, UniProt P12931); experiment: Z'-LYTE kinase assay (Invitrogen), Src; type: biochemical; parameters: full-length kinase in the Z-LYTE assay vs. kinase domain in the current study; purchased Millipore
Chain of Src kinase (P12931 whole entry, the tested form may be a part): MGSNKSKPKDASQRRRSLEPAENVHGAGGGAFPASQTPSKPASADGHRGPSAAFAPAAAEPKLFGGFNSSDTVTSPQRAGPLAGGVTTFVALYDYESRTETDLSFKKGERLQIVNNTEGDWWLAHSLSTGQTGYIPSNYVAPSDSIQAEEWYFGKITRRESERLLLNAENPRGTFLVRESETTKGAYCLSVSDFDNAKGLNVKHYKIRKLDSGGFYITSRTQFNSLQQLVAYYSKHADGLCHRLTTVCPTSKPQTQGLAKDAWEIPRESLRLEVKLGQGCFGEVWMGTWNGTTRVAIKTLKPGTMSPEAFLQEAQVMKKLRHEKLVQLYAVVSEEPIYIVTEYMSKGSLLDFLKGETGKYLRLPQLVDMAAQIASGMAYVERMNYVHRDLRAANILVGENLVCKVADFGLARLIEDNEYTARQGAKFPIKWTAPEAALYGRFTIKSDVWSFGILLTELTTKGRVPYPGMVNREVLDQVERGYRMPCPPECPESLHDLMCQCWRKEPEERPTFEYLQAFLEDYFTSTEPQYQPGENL
Summary of the method: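 Human Src activity measured by FRET-based Z′-LYTE Tyr 02 peptide assay at ATP near KM,ATP unless noted. IC50s and single-point inhibition determined over varying macrocycle concentrations. Non-Src kinases tested via a commercial profiling service.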

[2] = 5 μM ATP, 100 μM Src optimal peptide
[3] = 5 μM ATP, 300 μM Src optimal peptide
[4] = 250 μM ATP, 300 μM Src optimal peptide

T1 sequence (P06240 227-509): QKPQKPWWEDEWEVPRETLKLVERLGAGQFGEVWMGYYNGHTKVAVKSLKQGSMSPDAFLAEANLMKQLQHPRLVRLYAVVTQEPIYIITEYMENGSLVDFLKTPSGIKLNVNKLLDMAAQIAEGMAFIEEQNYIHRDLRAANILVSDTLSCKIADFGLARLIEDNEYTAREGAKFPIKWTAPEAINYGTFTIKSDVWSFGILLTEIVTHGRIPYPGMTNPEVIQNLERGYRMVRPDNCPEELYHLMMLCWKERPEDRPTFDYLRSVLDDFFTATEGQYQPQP

## NC(=O)[C@@H]1CCCNC(=O)[C@H](Cc2ccc([N+](=O)[O-])cc2)NC(=O)[C@H](Cc2ccco2)NC(=O)[C@H](CC2CC2)NC(=O)/C=C/C(=O)N1 [trans-A10-B1-C5-D6]
Lck; [2]
  pIC50: < 4.00
Lck; [3]
  pIC50: < 4.00
Lck; [4]
  pIC50: < 4.00
Akt3
  % inhibition: 11%
MAPKAPK2 (MK2)
  % inhibition: −3%
VEGFR2 (KDR)
  % inhibition: 7%
Pim1
  % inhibition: −3%
HCK; [2]
  pIC50: < 4.00
HCK; [3]
  pIC50: < 4.00
HCK; [4]
  pIC50: < 4.00
Src kinase domain; 250 μM AMP-PNP
  pKd: 5.77
Src kinase domain; no competitor
  pKd: 6.52
Abl; [2]
  pIC50: < 4.00
Abl; [3]
  pIC50: < 4.00
Abl; [4]
  pIC50: < 4.00
[1]; [2]
  pIC50: 4.96
[1]; [4]
  pIC50: 4.68
Src kinase; SRC, 5 μM, data from FIG. 8 and Table 6
  % inhibition: 86%
Src kinase; apparent KM for ATP versus macrocycle concentration
  mode of Src inhibition: ATP-competitive
